Entries after “also recorded” stand apart in the source; their conditions may differ.
Assays:
B-RAF [1] = target: T1, B-RAF (Homo sapiens, UniProt P15056); assay: Radiometric kinase assay with 32P-labeled ATP (Eurofins), cascade assay
Target sequence in this assay (P15056 2-766): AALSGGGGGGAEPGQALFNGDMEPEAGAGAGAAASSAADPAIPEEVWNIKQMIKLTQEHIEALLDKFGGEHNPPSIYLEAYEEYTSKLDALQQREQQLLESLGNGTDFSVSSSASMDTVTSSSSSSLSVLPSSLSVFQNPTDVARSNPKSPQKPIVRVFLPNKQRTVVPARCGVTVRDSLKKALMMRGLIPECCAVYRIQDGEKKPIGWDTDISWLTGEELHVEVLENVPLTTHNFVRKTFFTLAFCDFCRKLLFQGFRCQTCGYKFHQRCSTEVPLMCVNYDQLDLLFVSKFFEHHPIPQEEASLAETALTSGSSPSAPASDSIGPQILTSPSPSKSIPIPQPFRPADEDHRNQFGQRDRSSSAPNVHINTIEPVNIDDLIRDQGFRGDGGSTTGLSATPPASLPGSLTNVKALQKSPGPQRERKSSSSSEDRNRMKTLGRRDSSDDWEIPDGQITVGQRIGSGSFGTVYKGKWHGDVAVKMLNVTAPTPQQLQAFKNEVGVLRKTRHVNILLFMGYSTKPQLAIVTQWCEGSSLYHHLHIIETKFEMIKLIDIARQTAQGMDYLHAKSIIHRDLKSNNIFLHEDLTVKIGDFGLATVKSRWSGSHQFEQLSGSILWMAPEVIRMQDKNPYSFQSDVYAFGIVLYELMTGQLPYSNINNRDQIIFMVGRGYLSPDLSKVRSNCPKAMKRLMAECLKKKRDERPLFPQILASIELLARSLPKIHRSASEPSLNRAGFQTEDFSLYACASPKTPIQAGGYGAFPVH
Target sequence in this assay (Q02750 whole entry, further chain): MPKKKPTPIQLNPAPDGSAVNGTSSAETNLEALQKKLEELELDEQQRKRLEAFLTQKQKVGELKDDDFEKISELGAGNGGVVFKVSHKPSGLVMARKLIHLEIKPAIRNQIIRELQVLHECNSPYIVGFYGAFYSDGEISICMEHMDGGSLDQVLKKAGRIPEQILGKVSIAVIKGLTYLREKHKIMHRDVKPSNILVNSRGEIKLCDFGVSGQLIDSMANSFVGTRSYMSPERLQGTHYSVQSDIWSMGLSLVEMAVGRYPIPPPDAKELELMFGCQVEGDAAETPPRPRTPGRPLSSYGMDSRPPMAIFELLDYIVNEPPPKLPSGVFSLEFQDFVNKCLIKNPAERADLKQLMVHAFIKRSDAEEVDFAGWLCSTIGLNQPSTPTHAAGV
Target sequence in this assay (P28482 2-360, further chain): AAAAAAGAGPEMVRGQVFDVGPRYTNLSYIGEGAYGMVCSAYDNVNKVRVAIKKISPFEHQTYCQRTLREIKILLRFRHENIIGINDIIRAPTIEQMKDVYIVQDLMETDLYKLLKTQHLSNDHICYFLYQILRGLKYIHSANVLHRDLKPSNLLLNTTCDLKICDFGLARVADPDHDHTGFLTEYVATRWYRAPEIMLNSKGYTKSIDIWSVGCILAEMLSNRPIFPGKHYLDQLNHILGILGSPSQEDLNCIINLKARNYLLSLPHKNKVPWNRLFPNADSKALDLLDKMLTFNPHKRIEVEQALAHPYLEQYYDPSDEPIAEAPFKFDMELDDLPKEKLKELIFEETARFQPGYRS
Procedure: (§2) Inhibition of MLK1 and B-RAF at K M,ATP was determined in a radiometric assay using ^32P-labeled ATP at Eurofins Cerep SA (Celle-Lévescault, France).

NCI-H2052 = assay: Cell viability assay (ATPlite); format: cell-based; settings: Homo sapiens; NCI-H2052 cell line, 72 hours incubation
Procedure: (§1) Intracellular ATP content was used as an indirect readout of cell number using the ATPlite 1Step bioluminescence assay (Revvity, Groningen, the Netherlands). Cells were seeded in 384-well plates at an optimized density to ensure unrestricted growth and maximal signal at the end of the experiment. After 24 hours of incubation, the starting cell number was determined by adding ATPlite to each well of a control plate and recording luminescence on an Envision multimode reader (Revvity, Waltham, MA, USA) ([4]). Compounds were diluted in DMSO in √10-fold steps from 10 mmol/L stocks to obtain 9-point dilution series. After further 31.6-fold dilution in 20 mmol/L HEPES (pH 7.4), the dilution series were added in duplicate to the cells in the 384-well plates to determine the effect of the compounds on cell viability. Vehicle-treated controls were included to determine maximal cell proliferation. The final DMSO concentration was 0.4% (v/v) in all wells. After incubation for an additional 72 hours, the ATP content was measured in each well using ATPlite. The luminescent signal in inhibitor-treated wells was normalized to vehicle-treated control wells to determine the percentage viability at each concentration. Cell doublings were determined by relating the cell number of vehicle-treated controls to the starting cell number for each cell line. The viability assay of a cell line was repeated when the cell doubling deviated > 2-fold from the historic doubling as determined by multiple independent experiments. The quality of the complete assay was determined by a parallel test with doxorubicin on two cell lines. IC50 values were calculated by fitting a four-parameter logistic model to the percentage viability values using IDBS XLfit5 (IDBS, Guildford, United Kingdom). All curves were visually inspected and submitted to an F-test as implemented in IDBS XLfit5. Curves with an F-value above 1.5 were invalidated and IC50 values were maximized at the highest concentration.

NCI-H2172 = assay: Cell viability assay (ATPlite); format: cell-based; settings: Homo sapiens; NCI-H2172 cell line, 72 hours incubation
Procedure: as §1

[2] = target: T2, biotinylated, inactive MEK1 (Homo sapiens, UniProt Q02750); assay: biochemical
[3] = target: T2, biotinylated, inactive MEK1; assay: Surface plasmon resonance binding (Biacore 1S+); settings: SPR
KG-1 = assay: Cell viability assay (ATPlite); format: cell-based, human; settings: KG-1 cell line, 72 hours incubation
Procedure: as §1

AN3-CA = assay: Cell viability assay (ATPlite); format: cell-based, human; settings: AN3-CA cell line, 72 hours incubation
Procedure: as §1

KATO III = assay: Cell viability assay (ATPlite); format: cell-based, human; settings: KATO III cell line, 72 hours incubation
Procedure: as §1

RT-4 = assay: Cell viability assay (ATPlite); format: cell-based, human; settings: RT-4 cell line, 72 hours incubation
Procedure: as §1

B-RAF [4] = target: T1, B-RAF; assay: Kinase enzyme activity assay at 1 mmol/L ATP (Carna)
Target sequence in this assay (P15056 whole entry): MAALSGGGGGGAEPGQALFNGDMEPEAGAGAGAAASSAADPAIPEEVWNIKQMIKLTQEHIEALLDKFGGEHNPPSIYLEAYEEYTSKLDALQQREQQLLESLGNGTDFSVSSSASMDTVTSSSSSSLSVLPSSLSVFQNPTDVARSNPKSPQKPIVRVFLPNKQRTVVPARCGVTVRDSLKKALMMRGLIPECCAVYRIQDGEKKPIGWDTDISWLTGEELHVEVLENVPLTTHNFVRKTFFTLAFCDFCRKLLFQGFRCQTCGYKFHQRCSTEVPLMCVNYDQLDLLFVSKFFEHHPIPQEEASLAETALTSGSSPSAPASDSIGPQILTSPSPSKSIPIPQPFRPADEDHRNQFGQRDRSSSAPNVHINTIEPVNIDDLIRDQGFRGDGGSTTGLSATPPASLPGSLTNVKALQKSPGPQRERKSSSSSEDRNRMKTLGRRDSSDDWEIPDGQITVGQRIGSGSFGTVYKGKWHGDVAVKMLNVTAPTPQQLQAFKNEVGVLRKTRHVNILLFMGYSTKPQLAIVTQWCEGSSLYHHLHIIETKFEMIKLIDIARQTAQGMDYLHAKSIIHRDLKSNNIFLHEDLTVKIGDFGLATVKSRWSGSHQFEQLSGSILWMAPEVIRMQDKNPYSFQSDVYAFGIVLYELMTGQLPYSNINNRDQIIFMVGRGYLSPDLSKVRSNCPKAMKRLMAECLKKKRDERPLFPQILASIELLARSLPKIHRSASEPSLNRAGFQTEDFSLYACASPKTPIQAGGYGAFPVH
Procedure: as §2

SIK3 = SIK3 (Homo sapiens, UniProt Q9Y2K2); assay: Competition binding assay (Eurofins DiscoverX)
Procedure: Inhibition of MLK1 and B-RAF at K M,ATP was determined in a radiometric assay using ^32P-labeled ATP at Eurofins Cerep SA (Celle-Lévescault, France). Interaction with SIK3 was assessed in a competition binding assay at Eurofins DiscoverX LLC (San Diego, CA, USA).

[5] = tested on: panel of 160 human cancer cell lines; assay: Cancer cell panel profiling in cell viability assays (ATPlite); format: cell-based
Text: A panel of 160 cancer cell lines was used in this study. […]. Cell lines were purchased from the American Type Culture Collection (ATCC) (Manassas, VA, USA), the German Collection of Microorganisms and Cell Cultures (DSMZ) (Braunschweig, Germany), the RIKEN BioResource Research Center (Tsukuba, Ibaraki, Japan) or the Japanese Collection of Research Bioresources (JCRB) (Ibaraki City, Osaka, Japan). All cell lines were propagated in the cell culture media as indicated in Supplementary Table S1 . Cell viability assays were carried out within ten passages of the original vials. The authenticity of the ATCC and DSMZ cell lines has been confirmed by short tandem repeat analysis at both institutions. […]
Intracellular ATP content was used as an indirect readout of cell number using the ATPlite 1Step bioluminescence assay (Revvity, Groningen, the Netherlands). […] After 24 hours of incubation, the starting cell number was determined by adding ATPlite to each well of a control plate and recording luminescence on an Envision multimode reader (Revvity, Waltham, MA, USA) ([4]). […] After incubation for an additional 72 hours, the ATP content was measured in each well using ATPlite. […] Cell doublings were determined by relating the cell number of vehicle-treated controls to the starting cell number for each cell line. […]

T2 sequence (Q02750 whole entry): as the sequence (Q02750 whole entry, further chain) above
Chain of SIK3 (Q9Y2K2 whole entry): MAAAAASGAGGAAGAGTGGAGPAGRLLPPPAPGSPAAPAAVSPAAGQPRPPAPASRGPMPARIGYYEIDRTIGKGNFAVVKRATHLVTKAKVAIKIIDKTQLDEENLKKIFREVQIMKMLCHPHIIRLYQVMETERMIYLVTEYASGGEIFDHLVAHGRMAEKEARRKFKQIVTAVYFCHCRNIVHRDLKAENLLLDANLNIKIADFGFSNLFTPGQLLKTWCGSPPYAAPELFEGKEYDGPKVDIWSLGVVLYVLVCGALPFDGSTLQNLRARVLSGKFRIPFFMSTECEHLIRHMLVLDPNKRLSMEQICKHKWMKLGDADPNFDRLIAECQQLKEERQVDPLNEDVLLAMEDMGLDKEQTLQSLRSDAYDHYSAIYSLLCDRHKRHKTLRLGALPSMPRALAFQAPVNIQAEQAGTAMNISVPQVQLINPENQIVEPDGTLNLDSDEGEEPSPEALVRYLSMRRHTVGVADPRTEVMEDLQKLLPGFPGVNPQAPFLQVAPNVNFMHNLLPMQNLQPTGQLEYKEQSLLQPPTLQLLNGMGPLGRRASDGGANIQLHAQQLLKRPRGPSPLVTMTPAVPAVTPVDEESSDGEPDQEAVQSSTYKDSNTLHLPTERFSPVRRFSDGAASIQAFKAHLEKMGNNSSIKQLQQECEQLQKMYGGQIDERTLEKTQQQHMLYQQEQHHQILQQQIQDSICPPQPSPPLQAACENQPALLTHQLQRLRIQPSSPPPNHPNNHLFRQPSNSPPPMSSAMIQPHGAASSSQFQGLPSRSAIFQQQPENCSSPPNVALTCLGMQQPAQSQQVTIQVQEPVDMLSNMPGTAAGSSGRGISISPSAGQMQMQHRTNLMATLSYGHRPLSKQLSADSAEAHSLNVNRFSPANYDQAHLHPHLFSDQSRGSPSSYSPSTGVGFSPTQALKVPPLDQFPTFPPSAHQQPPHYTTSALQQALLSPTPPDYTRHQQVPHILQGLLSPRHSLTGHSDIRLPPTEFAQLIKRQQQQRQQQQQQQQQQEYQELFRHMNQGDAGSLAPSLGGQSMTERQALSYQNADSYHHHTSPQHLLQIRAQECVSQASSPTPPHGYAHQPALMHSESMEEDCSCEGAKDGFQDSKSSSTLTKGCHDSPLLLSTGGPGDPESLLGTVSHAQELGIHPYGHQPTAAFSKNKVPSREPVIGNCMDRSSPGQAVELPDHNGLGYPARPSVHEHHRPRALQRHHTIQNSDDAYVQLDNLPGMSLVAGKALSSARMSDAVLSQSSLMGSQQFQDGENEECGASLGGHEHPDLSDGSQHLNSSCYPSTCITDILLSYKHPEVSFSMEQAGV

Compound: O=C(c1ccc(Oc2ccccc2)cc1Cl)c1c[nH]c2ncnc(N[C@@H]3CC[C@@H](CO)OC3)c12 [nemtabrutinib]
- IC50 (B-RAF [1]): 73 nM
- IC50 (NCI-H2052): 5240 nM
- IC50 (NCI-H2172): 447 nM
- Kd [2]: 10 nM
- log (kd) [3]: -3.49
- log(ka) [3]: 4.50
- t1/2 [3]: 35.67 min
- IC50 (KG-1; Homo sapiens, KG-1, 72 h): 1400 nM
- IC50 (KG-1): 1410 nM
- IC50 (AN3-CA): 1190 nM
- IC50 (AN3-CA; Homo sapiens, AN3-CA, 72 h): 1100 nM
- IC50 (KATO III; Homo sapiens, KATO III, 72 h): 1100 nM
- IC50 (KATO III): 1120 nM
- IC50 (RT-4; Homo sapiens, RT-4, 72 h): 1700 nM
- IC50 (RT-4): 1700 nM
- IC50 (B-RAF [4]): 335 nM
- IC50 (SIK3): > 10000 nM
- Binding to SIK3 (SIK3; competition binding assay): No binding
- Extent of inhibition of viability ([5]; SU-DHL-6 and REC-1 cells, dose-response curves): almost complete inhibition of viability
- Sensitivity of BRAF-mutant versus BRAF wild-type cell lines ([5]; average over cell panel, ANOVA): three times higher; also recorded: three times more sensitive
